# In patent publication US7494988B2, “Inhibitors of serine proteases, particularly hepatitis C virus NS3 protease” (Vertex Pharmaceuticals Incorporated, priority 2000, dated 2009):
# Target: HCV NS3 serine protease (Hepatitis C virus genotype 1a, UniProt P27958)
# Experiment: Inhibition of HCV NS3 serine protease, spectrophotometric assay (5A-pNA cleavage)
# Type: biochemical
# Conditions: EDVVAbuC-p-nitroanilide (5A-pNA) substrate, 30° C., pNA release at 405 nm
# Protocol: Insofar as compounds of formula (I) are able to inhibit NS3 serine protease, they are of evident clinical utility for the treatment of viral diseases, including HCV. The compounds of this invention are tested for their ability to inhibit HCV in the following spectrophotometric assay.
# The spectrophotometric assays were run in a 96-well microtiter plate at 30° C., using a SpectraMax 250 reader (Molecular Devices, Sunnyvale, Calif.) with kinetic capability. Cleavage of EDVVAbuC-p-nitroanilide (5A-pNA) substrate was performed with or without NS4A in the same buffer used for HPLC assays at 30° C., and pNA release was monitored at 405 nm. […]
# Kinetic constants for the rapid equilibrium ordered bisubstrate reaction were determined from rate vs. [4A], [EDVV AbuC-pNA] data by non-linear least squares fitting to equation 1 [J. F. Morrison, Biochim. […] Kii and Kis values for peptidyl inhibitors were determined from rate vs. [inhibitor], [substrate] data and fitting to the equation for mixed inhibition: rate=Vmax[S]/{Km(1+[I]/Kis)+[S](1+[I]/Kii)} The commercial program KinetAsyst (StateCollege, Pa.) was used for both procedures. Ki values were calculated from rate vs. [inhibitor] plots by a nonlinear least squares fit of the data to the equation of Morrison for tight binding competitive inhibition [J. F. Morrison, Biochim. […]
# HCV NS3 serine protease, sequence (P27958 1027-1657): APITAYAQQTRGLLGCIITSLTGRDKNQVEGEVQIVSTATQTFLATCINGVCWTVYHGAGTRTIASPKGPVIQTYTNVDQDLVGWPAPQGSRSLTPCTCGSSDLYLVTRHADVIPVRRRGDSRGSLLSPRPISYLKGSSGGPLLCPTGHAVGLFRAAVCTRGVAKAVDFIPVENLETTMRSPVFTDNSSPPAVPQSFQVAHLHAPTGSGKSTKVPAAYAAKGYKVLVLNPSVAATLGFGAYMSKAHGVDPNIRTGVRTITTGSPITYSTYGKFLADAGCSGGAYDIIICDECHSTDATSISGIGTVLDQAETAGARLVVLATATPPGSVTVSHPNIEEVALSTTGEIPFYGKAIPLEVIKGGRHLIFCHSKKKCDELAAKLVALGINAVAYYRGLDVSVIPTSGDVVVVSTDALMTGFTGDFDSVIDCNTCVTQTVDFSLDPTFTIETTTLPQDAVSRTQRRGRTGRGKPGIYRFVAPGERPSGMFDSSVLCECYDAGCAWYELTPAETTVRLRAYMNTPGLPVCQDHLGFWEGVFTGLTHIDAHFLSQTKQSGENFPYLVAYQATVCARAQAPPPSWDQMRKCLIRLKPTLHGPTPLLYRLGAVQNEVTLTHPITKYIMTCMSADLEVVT
row,Compound,Ki
1,CCC[C@H](NC(=O)C1C[C@@H](OC(=O)N2CCc3ccccc3C2)CN1C(=O)[C@@H](NC(=O)[C@@H](NC(=O)c1cnccn1)C(C)C)C(C)C)C(=O)C(=O)N1CCC1 (some centres unmarked) [Compound 7],< 1000 nM
2,CCC[C@H](NC(=O)C1C[C@@H](OC(=O)N2CCc3ccccc3C2)CN1C(=O)[C@@H](NC(=O)[C@@H](NC(=O)c1cnccn1)C(C)C)C(C)C)C(=O)C(=O)N1CC(Oc2ccccc2)C1 (some centres unmarked) [Compound 9],< 1000 nM
